Experimental data: patent US10004701B2, “Methods and compositions for treating infection” (UNIVERSITY OF ROCHESTER, priority 2012, dated 2018)
Counter-ions that a name gives are not always drawn. Like-named read-outs stand apart in the source and are kept apart here.

Assays:
Assay in all cases: AK assay 384-well format, Prestwick library screening
E. faecium = type: cell-based, Enterococcus faecium; details: 50 μM final drug concentration; for fold induction at 50 µM: Enterococcus faecium, 3 h
[1] = test system: S. aureus strain USA300-0114; type: cell-based, Staphylococcus aureus; details: 50 μM final drug concentration; for fold induction at 50 µM: Staphylococcus aureus, USA300, 3 h
K. pneumoniae = type: cell-based, Klebsiella pneumoniae; details: 50 μM final drug concentration; for fold induction at 50 µM: Klebsiella pneumoniae, 3 h
[2] = test system: A. baumannii strain 98-37-09; type: cell-based, Acinetobacter baumannii; details: 50 μM final drug concentration; for fold induction at 50 µM: Acinetobacter baumannii, 983709, 3 h
P. aeruginosa = type: cell-based, Pseudomonas aeruginosa; details: 50 μM final drug concentration; for fold induction at 50 µM: Pseudomonas aeruginosa, 3 h
E. cloacae = type: cell-based, Enterobacter cloacae; details: 50 μM final drug concentration; for fold induction at 50 µM: Enterobacter cloacae, 3 h
E. coli = type: cell-based, Escherichia coli; details: 50 μM final drug concentration; for fold induction at 50 µM: Escherichia coli, 3 h
[3] = planktonic, cutoff for positive 3-fold increase, read-out: AK-based Prestwick Library Screening Results, E. faecium (fold increase in extracellular AK activity)
[4] = planktonic, cutoff for positive 3-fold increase, read-out: AK-based Prestwick Library Screening Results, S. aureus (fold increase in extracellular AK activity)
[5] = planktonic, cutoff for positive 3-fold increase, read-out: AK-based Prestwick Library Screening Results, K. pneumoniae (fold increase in extracellular AK activity)
[6] = planktonic, cutoff for positive 3-fold increase, read-out: AK-based Prestwick Library Screening Results, A. baumannii (fold increase in extracellular AK activity)
[7] = planktonic, cutoff for positive 3-fold increase, read-out: AK-based Prestwick Library Screening Results, P. aeruginosa (fold increase in extracellular AK activity)
[8] = planktonic, cutoff for positive 3-fold increase, read-out: AK-based Prestwick Library Screening Results, E. cloacae (fold increase in extracellular AK activity)
[9] = planktonic, cutoff for positive 3-fold increase, read-out: AK-based Prestwick Library Screening Results, E. coli (fold increase in extracellular AK activity)
[10] = cutoff for positive-scoring molecules 3-fold increase
[11] = planktonic, […], read-out: AK-based Prestwick Library Screening Results, E. coli (fold increase in extracellular AK activity)
[12] = planktonic, cutoff for positive-scoring molecules 3-fold increase

SMILES: C[C@]12CCC(=O)C=C1CC[C@@H]1[C@@H]2C(=O)C[C@]2(C)C(=O)CC[C@@H]12 [Adrenosterone]
- AK-based Prestwick Library Screening Results, E. faecium (fold increase in extracellular AK activity) (E. faecium; planktonic, […]): 0.9
- AK-based Prestwick Library Screening Results, S. aureus (fold increase in extracellular AK activity) ([1]; planktonic, […]): 0.6
- AK-based Prestwick Library Screening Results, K. pneumoniae (fold increase in extracellular AK activity) (K. pneumoniae; planktonic, […]): 0.6
- AK-based Prestwick Library Screening Results, A. baumannii (fold increase in extracellular AK activity) ([2]; planktonic, […]): 0.8
- AK-based Prestwick Library Screening Results, P. aeruginosa (fold increase in extracellular AK activity) (P. aeruginosa; planktonic, […]): 0.6
- AK-based Prestwick Library Screening Results, E. cloacae (fold increase in extracellular AK activity) (E. cloacae; planktonic, […]): 1.2
- AK-based Prestwick Library Screening Results, E. coli (fold increase in extracellular AK activity) (E. coli; planktonic, […]): 0.7

SMILES: CCc1cc(C(N)=S)ccn1 [Ethionamide]
- fold induction at 50 µM (E. faecium; [3]): 1
- fold induction at 50 µM [1, 4]: 1.3
- fold induction at 50 µM (K. pneumoniae; [5]): 1
- fold induction at 50 µM [2, 6]: 1.2
- fold induction at 50 µM (P. aeruginosa; [7]): 1.1
- fold induction at 50 µM (E. cloacae; [8]): 1.4
- fold induction at 50 µM (E. coli; [9]): 1.1

SMILES: CCC(Cc1c(I)cc(I)c(N)c1I)C(=O)O (stereo not drawn) [Iopanoic acid]
- fold induction at 50 µM (E. faecium; cutoff for positive-scoring molecules 3-fold increase, read-out: AK-based Prestwick Library Screening Results, E. faecium (fold increase in extracellular AK activity)): 0.9
- fold induction at 50 µM ([1]; cutoff for positive-scoring molecules 3-fold increase, read-out: AK-based Prestwick Library Screening Results, S. aureus (fold increase in extracellular AK activity)): 0.4
- fold induction at 50 µM (K. pneumoniae; cutoff for positive-scoring molecules 3-fold increase, read-out: AK-based Prestwick Library Screening Results, K. pneumoniae (fold increase in extracellular AK activity)): 0.6
- fold induction at 50 µM ([2]; cutoff for positive-scoring molecules 3-fold increase, read-out: AK-based Prestwick Library Screening Results, A. baumannii (fold increase in extracellular AK activity)): 0.6
- fold induction at 50 µM (P. aeruginosa; cutoff for positive-scoring molecules 3-fold increase, read-out: AK-based Prestwick Library Screening Results, P. aeruginosa (fold increase in extracellular AK activity)): 0.6
- fold induction at 50 µM (E. cloacae; cutoff for positive-scoring molecules 3-fold increase, read-out: AK-based Prestwick Library Screening Results, E. cloacae (fold increase in extracellular AK activity)): 9.6
- fold induction at 50 µM (E. coli; cutoff for positive-scoring molecules 3-fold increase, read-out: AK-based Prestwick Library Screening Results, E. coli (fold increase in extracellular AK activity)): 0.6

SMILES: CN1CCc2cc3c(cc2C1O)OCO3 (stereo not drawn) [Hydrastinine hydrochloride]
- fold induction at 50 µM (E. faecium; 384-well format, cutoff for positive-scoring molecules 3-fold increase, read-out: AK-based Prestwick Library Screening Results, E. faecium (increase in extracellular AK activity)): 0.9
- fold induction at 50 µM ([1]; 384-well format, cutoff for positive-scoring molecules 3-fold increase, read-out: AK-based Prestwick Library Screening Results, S. aureus (increase in extracellular AK activity)): 0.7
- fold induction at 50 µM (K. pneumoniae; 384-well format, cutoff for positive-scoring molecules 3-fold increase, read-out: AK-based Prestwick Library Screening Results, K. pneumoniae (increase in extracellular AK activity)): 0.8
- fold induction at 50 µM ([2]; 384-well format, cutoff for positive-scoring molecules 3-fold increase, read-out: AK-based Prestwick Library Screening Results, A. baumannii (increase in extracellular AK activity)): 0.9
- fold induction at 50 µM (P. aeruginosa; 384-well format, cutoff for positive-scoring molecules 3-fold increase, read-out: AK-based Prestwick Library Screening Results, P. aeruginosa (increase in extracellular AK activity)): 0.9
- fold induction at 50 µM (E. cloacae; 384-well format, cutoff for positive-scoring molecules 3-fold increase, read-out: AK-based Prestwick Library Screening Results, E. cloacae (increase in extracellular AK activity)): 1.2
- fold induction at 50 µM (E. coli; 384-well format, cutoff for positive-scoring molecules 3-fold increase, read-out: AK-based Prestwick Library Screening Results, E. coli (increase in extracellular AK activity)): 1

SMILES: CN(C)CCN(Cc1ccc(Cl)cc1)c1ccccn1 [Chloropyramine hydrochloride]
- fold induction at 50 µM (E. faecium; planktonic, cutoff for positive-scoring molecules 3-fold increase, read-out: AK-based Prestwick Library Screening Results, E. faecium (fold increase in extracellular AK activity)): 0.9
- fold induction at 50 µM ([1]; planktonic, cutoff for positive-scoring molecules 3-fold increase, read-out: AK-based Prestwick Library Screening Results, S. aureus (fold increase in extracellular AK activity)): 0.5
- fold induction at 50 µM (K. pneumoniae; planktonic, cutoff for positive-scoring molecules 3-fold increase, read-out: AK-based Prestwick Library Screening Results, K. pneumoniae (fold increase in extracellular AK activity)): 0.6
- fold induction at 50 µM ([2]; planktonic, cutoff for positive-scoring molecules 3-fold increase, read-out: AK-based Prestwick Library Screening Results, A. baumannii (fold increase in extracellular AK activity)): 0.6
- fold induction at 50 µM (P. aeruginosa; planktonic, cutoff for positive-scoring molecules 3-fold increase, read-out: AK-based Prestwick Library Screening Results, P. aeruginosa (fold increase in extracellular AK activity)): 0.5
- fold induction at 50 µM (E. cloacae; planktonic, cutoff for positive-scoring molecules 3-fold increase, read-out: AK-based Prestwick Library Screening Results, E. cloacae (fold increase in extracellular AK activity)): 0.6
- fold induction at 50 µM (E. coli; planktonic, cutoff for positive-scoring molecules 3-fold increase, read-out: AK-based Prestwick Library Screening Results, E. coli (fold increase in extracellular AK activity)): 0.7

SMILES: COc1c(C)c2c(c(O)c1C/C=C(\C)CCC(=O)O)C(=O)OC2 [Mycophenolic acid]
- fold induction at 50 µM (E. faecium; [3]): 1.1
- fold induction at 50 µM [1, 4]: 1.1
- fold induction at 50 µM (K. pneumoniae; [5]): 1.5
- fold induction at 50 µM [2, 6]: 1.2
- fold induction at 50 µM (P. aeruginosa; [7]): 1.2
- fold induction at 50 µM (E. cloacae; [8]): 1.3
- fold induction at 50 µM (E. coli; [9]): 1.2

SMILES: COc1ccc2cc([C@@H](C)C(=O)[O-])ccc2c1.[Na+] [(R)-Naproxen sodium salt]
- AK-based Prestwick Library Screening Results, E. faecium (fold increase in extracellular AK activity) (E. faecium; [10]): 1.0
- AK-based Prestwick Library Screening Results, S. aureus (fold increase in extracellular AK activity) [1, 10]: 1.0
- AK-based Prestwick Library Screening Results, K. pneumoniae (fold increase in extracellular AK activity) (K. pneumoniae; [10]): 1.0
- AK-based Prestwick Library Screening Results, A. baumannii (fold increase in extracellular AK activity) [2, 10]: 1.1
- AK-based Prestwick Library Screening Results, P. aeruginosa (fold increase in extracellular AK activity) (P. aeruginosa; [10]): 1.0
- AK-based Prestwick Library Screening Results, E. cloacae (fold increase in extracellular AK activity) (E. cloacae; [10]): 1.7
- AK-based Prestwick Library Screening Results, E. coli (fold increase in extracellular AK activity) (E. coli; [10]): 1.1

SMILES: O=C1C[C@@H](c2ccc(O)cc2)Oc2cc(O)cc(O)c21 [Naringenine]
- fold induction at 50 µM (E. faecium; [3]): 0.9
- fold induction at 50 µM [1, 4]: 0.5
- fold induction at 50 µM (K. pneumoniae; [5]): 0.9
- fold induction at 50 µM [2, 6]: 1.2
- fold induction at 50 µM (P. aeruginosa; [7]): 1
- fold induction at 50 µM (E. cloacae; [8]): 1.5
- fold induction at 50 µM (E. coli; [9]): 1.1

SMILES: C[C@H](N)[C@H](O)c1ccc(O)c(O)c1 [Levonordefrin]
- fold induction at 50 µM (E. faecium; planktonic, […], read-out: AK-based Prestwick Library Screening Results, E. faecium (fold increase in extracellular AK activity)): 1
- fold induction at 50 µM ([1]; planktonic, […], read-out: AK-based Prestwick Library Screening Results, S. aureus (fold increase in extracellular AK activity)): 0.6
- fold induction at 50 µM (K. pneumoniae; planktonic, […], read-out: AK-based Prestwick Library Screening Results, K. pneumoniae (fold increase in extracellular AK activity)): 0.8
- fold induction at 50 µM ([2]; planktonic, […], read-out: AK-based Prestwick Library Screening Results, A. baumannii (fold increase in extracellular AK activity)): 0.8
- fold induction at 50 µM (P. aeruginosa; planktonic, […], read-out: AK-based Prestwick Library Screening Results, P. aeruginosa (fold increase in extracellular AK activity)): 0.7
- fold induction at 50 µM (E. cloacae; planktonic, […], read-out: AK-based Prestwick Library Screening Results, E. cloacae (fold increase in extracellular AK activity)): 0.7
- fold induction at 50 µM (E. coli; [11]): 0.7

SMILES: CNCC(O)c1ccc(OC(=O)C(C)(C)C)c(OC(=O)C(C)(C)C)c1 (stereo not drawn) [Dipivefrin hydrochloride]
- fold induction at 50 µM (E. faecium; [3]): 1
- fold induction at 50 µM [1, 4]: 1.2
- fold induction at 50 µM (K. pneumoniae; [5]): 1.3
- fold induction at 50 µM [2, 6]: 1.4
- fold induction at 50 µM (P. aeruginosa; [7]): 1.3
- fold induction at 50 µM (E. cloacae; [8]): 1.6
- fold induction at 50 µM (E. coli; [11]): 1.4

SMILES: CN1C(C(=O)Nc2ccccn2)=C(O)c2sccc2S1(=O)=O [Tenoxicam]
- fold induction at 50 µM (E. faecium; [3]): 1
- fold induction at 50 µM [1, 4]: 1.2
- fold induction at 50 µM (K. pneumoniae; [5]): 0.9
- fold induction at 50 µM [2, 6]: 1
- fold induction at 50 µM (P. aeruginosa; [7]): 1.1
- fold induction at 50 µM (E. cloacae; [8]): 1.6
- fold induction at 50 µM (E. coli; [9]): 1.3

SMILES: COCCc1ccc(OCC(O)CNC(C)C)cc1.COCCc1ccc(OCC(O)CNC(C)C)cc1.O=C(O)C(O)C(O)C(=O)O (racemic) [Metoprolol-(+,−) (+)-tartrate salt]
- AK-based Prestwick Library Screening Results, E. faecium (fold increase in extracellular AK activity) (E. faecium; [12]): 0.9
- AK-based Prestwick Library Screening Results, S. aureus (fold increase in extracellular AK activity) [1, 12]: 0.6
- AK-based Prestwick Library Screening Results, K. pneumoniae (fold increase in extracellular AK activity) (K. pneumoniae; [12]): 0.5
- AK-based Prestwick Library Screening Results, A. baumannii (fold increase in extracellular AK activity) [2, 12]: 0.7
- AK-based Prestwick Library Screening Results, P. aeruginosa (fold increase in extracellular AK activity) (P. aeruginosa; [12]): 0.7
- AK-based Prestwick Library Screening Results, E. cloacae (fold increase in extracellular AK activity) (E. cloacae; [12]): 7.0
- AK-based Prestwick Library Screening Results, E. coli (fold increase in extracellular AK activity) (E. coli; [12]): 0.6
